From patent US20070142352A1, “Pteridinone Derivatives as Modulators of Chemokine Receptor Activity” (ASTRAZENECA AB, priority 2001, published 2007) come the findings set out here.

As a reminder, the melting point is the temperature of the solid-liquid transition.

As to `C[C@H](CO)Nc1nc(SCc2cccc(F)c2F)nc2[nH]c(=O)c(NCCO)nc12` [Example 1, 2-[[(2,3-difluorophenyl)methyl]thio]-6-[(2-hydroxyethyl)amino]-4-[[(1R)-2-hydroxy-1-methylethyl]amino]-7(8H)-pteridinone], the melting point fell in the range of 197 to 199 °C.
The compound `C[C@H](CO)Nc1nc(SCc2cccc(F)c2F)nc2[nH]c(=O)c(NCc3ccccc3)nc12` [Example 2, 2-[[(2,3-difluorophenyl)methyl]thio]-4-[[(1R)-2-hydroxy-1-methylethyl]amino]-6-[(phenylmethyl)amino]-7(8H)-pteridinone] returned a melting point of 80 to 100 °C.
